Ki data for 21 compounds are collected here from patent US20160326142A1, “PYRAZOLE CARBOXAMIDE COMPOUNDS, COMPOSITIONS AND METHODS OF USE” (Genentech, Inc., priority 2012, published 2016).

Molecules are shown by their SMILES.

The assay deals with T1, ITK (Homo sapiens, UniProt Q08881).
T1 construct: purchased Invitrogen PV3875
T1 sequence (Q08881 1-620): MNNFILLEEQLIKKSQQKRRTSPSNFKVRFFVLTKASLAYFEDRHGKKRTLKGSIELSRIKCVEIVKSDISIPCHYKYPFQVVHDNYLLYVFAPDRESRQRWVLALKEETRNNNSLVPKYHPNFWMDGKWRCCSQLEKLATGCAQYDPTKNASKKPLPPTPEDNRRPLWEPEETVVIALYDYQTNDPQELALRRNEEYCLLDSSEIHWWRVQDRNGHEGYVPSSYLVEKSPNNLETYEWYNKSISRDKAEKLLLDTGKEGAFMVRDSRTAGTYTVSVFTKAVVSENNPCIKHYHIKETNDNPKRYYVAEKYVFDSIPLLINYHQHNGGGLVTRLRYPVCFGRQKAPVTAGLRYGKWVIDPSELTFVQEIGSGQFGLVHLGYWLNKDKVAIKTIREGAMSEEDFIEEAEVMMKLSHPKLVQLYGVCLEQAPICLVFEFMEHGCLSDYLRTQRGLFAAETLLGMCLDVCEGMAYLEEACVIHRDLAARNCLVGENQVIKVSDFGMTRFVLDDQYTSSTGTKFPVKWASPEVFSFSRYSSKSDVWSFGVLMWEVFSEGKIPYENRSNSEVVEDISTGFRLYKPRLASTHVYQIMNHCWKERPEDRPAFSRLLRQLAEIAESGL
Put plainly: ITK enzyme assay (Caliper or LCMS peptide phosphorylation). The assay is classed as biochemical. Particulars: purified ITK (Invitrogen PV3875), 20 μM ATP, Ki by Morrison's quadratic equation. The method, boiled down:
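Ki values come from Morrison quadratic fits of activity versus inhibitor concentration, adjusted for ATP-competitive inhibition against ATP/Km,app. Substrate and phosphopeptide from purified ITK reactions were resolved either microfluidically (Caliper, EDTA stop) or by LC-MS MRM (TCA stop).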
Broadly, the Ki is a dissociation constant, usually derived from enzyme kinetics or from competition with a known ligand. High values mean a looser hold on the target, low ones a stronger hold on the target. Regarding `CC12Cc3[nH]nc(C(=O)Nc4cnn(C(c5ccccc5)C5CC[S+]([O-])CC5)c4)c3CC1C2(F)F` (single isomer, unassigned) [Example 142b, 5,5-difluoro-5a-methyl-N-(1-((1-oxidotetrahydro-2H-thiopyran-4-yl)(phenyl)methyl)-1H-pyrazol-4-yl)-1,4,4a,5,5a,6-hexahydrocyclopropa[f]indazole-3-carboxamide], the Ki is less than 0.1 nM. With `CC1(C)CCc2c(C(=O)Nc3cnn(C(c4cccnc4)C4CCCCS4(=O)=O)c3)n[nH]c2C1` (single isomer, unassigned) [Example 144b, N-(1-((1,1-dioxidotetrahydro-2H-thiopyran-2-yl)(pyridin-3-yl)methyl)-1H-pyrazol-4-yl)-6,6-dimethyl-4,5,6,7-tetrahydro-1H-indazole-3-carboxamide] the figure was 3 nM; with `CN(C)CCC(c1ccccc1)n1cc(NC(=O)c2n[nH]c3c2C2CC2CC3)cn1` (single isomer, unassigned) [Example 26a, N-(1-(3-(dimethylamino)-1-phenylpropyl)-1H-pyrazol-4-yl)-3,4,5,5a,6,6a-hexahydrocyclopropa[e]indazole-1-carboxamide], 2 nM; with `CC1(C)CCc2c(C(=O)Nc3cnn(C(c4cccc(S(C)(=O)=O)c4)C4CCOC4)c3)n[nH]c2C1` (single isomer, unassigned) [Example 126b, 6,6-dimethyl-N-(1-((3-(methylsulfonyl)phenyl)(tetrahydrofuran-3-yl)methyl)-1H-pyrazol-4-yl)-4,5,6,7-tetrahydro-1H-indazole-3-carboxamide], 0.1 nM. Turning to `CN(C)CCC(c1ccccc1)n1cc(NC(=O)c2n[nH]c3c2CCC2(COC2)C3)cn1` (single isomer, unassigned) [Example 15b, N-(1-(3-(dimethylamino)-1-phenylpropyl)-1H-pyrazol-4-yl)-1,4,5,7-tetrahydrospiro[indazole-6,3′-oxetane]-3-carboxamide], the Ki came to 100 nM.

The compound `CN(CC(c1ccccc1)n1cc(NC(=O)c2n[nH]c3c2CCC(C)(C)C3)cn1)S(C)(=O)=O` (single isomer, unassigned) [Example 61a, 6,6-dimethyl-N-(1-(2-(N-methylmethylsulfonamido)-1-phenylethyl)-1H-pyrazol-4-yl)-4,5,6,7-tetrahydro-1H-indazole-3-carboxamide] yielded a Ki of 5 nM. Consider `CN(C)CCC(c1ccccc1)n1cc(NC(=O)c2n[nH]c3c2CC2CC2C3)cn1` (single isomer, unassigned) [Example 28b, N-(1-(3-(dimethylamino)-1-phenylpropyl)-1H-pyrazol-4-yl)-1,4,4a,5,5a,6-hexahydrocyclopropa[f]indazole-3-carboxamide], for which the Ki amounted to 6 nM. In the case of `CC(c1ncco1)n1cc(NC(=O)c2n[nH]c3c2CCC(C)(C)C3)cn1` (single isomer, unassigned) [Example 103b, 6,6-dimethyl-N-(1-(1-(oxazol-2-yl)ethyl)-1H-pyrazol-4-yl)-4,5,6,7-tetrahydro-1H-indazole-3-carboxamide], the Ki was found to be 9 nM.

Compound `CC1(C)CCc2c(C(=O)Nc3cnn(C(c4cccc(S(C)(=O)=O)c4)C4CCOC4)c3)n[nH]c2C1` (single isomer, unassigned) [Example 126d, 6,6-dimethyl-N-(1-((3-(methylsulfonyl)phenyl)(tetrahydrofuran-3-yl)methyl)-1H-pyrazol-4-yl)-4,5,6,7-tetrahydro-1H-indazole-3-carboxamide] came in with an inhibition constant (Ki) of 0.2 nM. `CC1CC(C(c2ccccc2)n2cc(NC(=O)c3n[nH]c4c3CCC(C)(C)C4)cn2)CCS1(=O)=O` (single isomer, unassigned) [Example 139c, 6,6-dimethyl-N-(1-((2-methyl-1,1-dioxidotetrahydro-2H-thiopyran-4-yl)(phenyl)methyl)-1H-pyrazol-4-yl)-4,5,6,7-tetrahydro-1H-indazole-3-carboxamide] came in with a Ki of 12 nM.

As for `CC1(C)CCc2c(C(=O)Nc3cnn(C(c4cccc(C(C)(C)O)c4)C4CCS(=O)(=O)CC4)c3)n[nH]c2C1` (single isomer, unassigned) [Example 119b], the Ki came to 4 nM.

For the compound `CN(C)CCC(c1ccccc1)n1cc(NC(=O)c2n[nH]c3c2C2CC2CC3)cn1` (single isomer, unassigned) [Example 26b, N-(1-(3-(dimethylamino)-1-phenylpropyl)-1H-pyrazol-4-yl)-3,4,5,5a,6,6a-hexahydrocyclopropa[e]indazole-1-carboxamide], the Ki came out at 46 nM.

In turn, `CN(C)CCC(c1ccccc1)n1cc(NC(=O)c2n[nH]c3c2CCC2(CC2)C3)cn1` (single isomer, unassigned) [Example 16a, N-(1-(3-(dimethylamino)-1-phenylpropyl)-1H-pyrazol-4-yl)-1′,4′,5′,7′-tetrahydrospiro[cyclopropane-1,6′-indazole]-3′-carboxamide] registered a Ki of 0.5 nM.

For `CC1(C)Cc2[nH]nc(C(=O)Nc3cnn(Cc4ccccc4)c3)c2CC1O` (single isomer, unassigned) [Example 70a, N-(1-benzyl-1H-pyrazol-4-yl)-5-hydroxy-6,6-dimethyl-4,5,6,7-tetrahydro-1H-indazole-3-carboxamide], the Ki is 11 nM. For `CC1(C)CCc2c(C(=O)Nc3cnn([C@@H]4COC[C@H]4c4ccccc4)c3)n[nH]c2C1` (single isomer, unassigned) [Example 135a, 6,6-dimethyl-N-(1-(4-phenyltetrahydrofuran-3-yl)-1H-pyrazol-4-yl)-4,5,6,7-tetrahydro-1H-indazole-3-carboxamide], the Ki was 130 nM.

With `CN(C)CCn1cc(NC(=O)c2n[nH]c3c2CCC(C)(C)C3)cn1` [Example 72, N-(1-(2-(dimethylamino)ethyl)-1H-pyrazol-4-yl)-6,6-dimethyl-4,5,6,7-tetrahydro-1H-indazole-3-carboxamide], the Ki turned out to be 78 nM. Take `N#Cc1cccc(Cn2cc(NC(=O)c3n[nH]c4c3CC(c3cn[nH]c3)CC4)cn2)c1` (single isomer, unassigned) [Example 2b, N-(1-(3-cyanobenzyl)-1H-pyrazol-4-yl)-5-(1H-pyrazol-4-yl)-4,5,6,7-tetrahydro-1H-indazole-3-carboxamide]: the Ki amounted to 34 nM.

Take `CN(C)CCC(c1ccccc1)n1cc(NC(=O)c2n[nH]c3c2CCC2(CC2)C3)cn1` (single isomer, unassigned) [Example 16b, N-(1-(3-(dimethylamino)-1-phenylpropyl)-1H-pyrazol-4-yl)-1′,4′,5′,7′-tetrahydrospiro[cyclopropane-1,6′-indazole]-3′-carboxamide]: the Ki is 7.9 nM. With `CC1(C)CCc2c(C(=O)Nc3cnn(C(c4cccnc4)C4CS(=O)(=O)C4)c3)n[nH]c2C1` (single isomer, unassigned) [Example 117b], the affinity corresponds to a Ki of 6 nM. In turn, `CC1(C)Cc2[nH]nc(C(=O)Nc3cnn(Cc4ccccc4)c3)c2CC1C#N` (single isomer, unassigned) [Example 90b, N-(1-benzyl-1H-pyrazol-4-yl)-5-cyano-6,6-dimethyl-4,5,6,7-tetrahydro-1H-indazole-3-carboxamide] returned a Ki of 10 nM. `CC(C1CCOCC1)n1cc(NC(=O)c2n[nH]c3c2CCC(C)(C)C3)cn1` (single isomer, unassigned) [Example 78b, 6,6-dimethyl-N-(1-(1-(tetrahydro-2H-pyran-4-yl)ethyl)-1H-pyrazol-4-yl)-4,5,6,7-tetrahydro-1H-indazole-3-carboxamide] registered a Ki of 6 nM.
